Experiments:
α7 nAChRs = conditions: radioligand binding assays; cited from earlier work
α4β2 nAChRs [1] = target: T1, α4β2 nAChRs (Homo sapiens, UniProt P17787+P43681); conditions: preincubated for 10 min with the cells; complete desensitization; cited from earlier work
T1 construct: expressed in transfected cells; host or cells: SH-EP1 (SH-EP1-pcDNA-hα4β2)

α3β4 nAChRs [2] = target: T2, α3β4 nAChRs (Rattus norvegicus, UniProt P04757+P12392); conditions: radioligand binding assays; cited from earlier work
T2 construct: expressed in transfected cells; host or cells: HEK293 (KXα3β4R2)

[3] = stability of the isolated HCl salt on exposure to air; type: physicochemical; conditions: white solid, larger scale
Source text: A gram-scale synthesis of sazetidine A is outlined in FIG. 1a. The Boc-protected azidityl methyl alcohol 2 and 3-bromo-5-hydroxy pyridine (3) are both commercially available. Treatment with PPh3 and DEAD according to the Mitsunobu protocol formed ether derivative 4 in 70% yield. Palladium-mediated coupling of the bromo-substituted pyridine 4 with 5-hexyn-1-ol under modified Sonogashira conditions furnished Boc-protected sazetidine A in 73% yield. Deprotection of the Boc-group with HCl was expected to give sazetidine A in salt form as published in the literature.

α4β2 nAChRs [4] = target: T1, α4β2 nAChRs; conditions: cited from earlier work
α3β4 nAChRs [5] = target: T2, α3β4 nAChRs; conditions: concentrations up to 10 μM, even after preincubation; cited from earlier work
α4β2 nAChRs [6] = target: T3, α4β2 nAChRs (Rattus norvegicus, UniProt P09483+P12390); assay: radioligand ([3H]epibatidine) competition binding, α4β2 nAChR
T3 construct: expressed in transfected cells; host or cells: HEK293 (KXα4β2)
Method: (§1) A. Cell Lines and Cell Culture. The cell lines KXα3β4R2, expressing rat α3β4 nAChRs, and KXα4β2, expressing rat α4β2 nAChRs, were established previously by stably transfecting human embryonic kidney 293 cells with combinations of rat nAChR subunit genes. These cell lines are maintained in minimum essential medium supplemented with 10% fetal bovine serum, 100 units/mL penicillin G, […] streptomycin, and 0.7 mg/mL G418 (Geneticin) at 37° C. with 5% CO2 in a humidified incubator. The cell line SH-EP1-pcDNA-hα4β2, expressing human α4β2 nAChRs, was described previously and are available. The SH-EP1-pcDNA-hα4β2 cells are grown in Dulbecco's modified Eagle's medium supplemented with 5% fetal bovine serum, 10% horse serum, 100 units/mL penicillin G, 100 μg/mL streptomycin, 320 μg/mL hygromycin B (Calbiochem, La Jolla, Calif.), 400 units/mL Zeocin at 37° C. with 5% CO2 in a humidified incubator.
B. nAChR Binding Affinity and Sub-type Selectivity Assay. The Ki values of compounds for binding to α3β4, α4β2 and other nAChR sub-types will be measured by competition experiments with [3H]epibatidine or other labeled ligands. Not intending to be bound by any one approach, one radioligand binding assay used for measuring the binding of [3H]epibatidine to nAChRs is described below.
In brief, cultured cells at above about 80% confluence will be removed from their flasks (80 cm^2) with a disposable cell scraper and will be placed in 10 mL of 50 mM Tris-HCl buffer, pH 7.4, 4° C. The cell suspension will be centrifuged at 10,000 g for 5 min and the pellet will be collected. For cells undergoing prolonged treatment with nicotinic agonists during culturing, the pellet will be washed two more times by centrifugation in fresh buffer to remove residual drug. The cell pellet will then homogenized in 10 mL of buffer with a Polytron homogenizer (12-mm aggregate, 26,000 rpm, 20 s; model PT2100; Kinematica, Basel, Switzerland) and will be centrifuged at 36,000 g for 10 min at 4° C. The membrane pellet will be resuspended in fresh buffer, and aliquots of the membrane preparation equivalent to 30 to 200 μg of protein will be used for binding assays. The concentration of [3H]epibatidine used will be 100 pM for competition binding assays and 2.4 nM, which is a saturating concentration for the α4β2 receptor subtype, for measuring receptor density. Nonspecific binding will be assessed in parallel incubations in the presence of 300 μM nicotine. Bound and free ligands will be separated by vacuum filtration through Whatman GF/C filters treated with 0.5% polyethylenimine. The filter-retained radioactivity will be measured by liquid scintillation counting. […] Data from saturation and competition binding assays will be analyzed using Prism 4 (GraphPad Software, San Diego, Calif.).

α3β4 nAChRs [7] = target: T2, α3β4 nAChRs; assay: radioligand ([3H]epibatidine) competition binding, α3β4 nAChR
Method: as §1, with “The SH-EP1-pcDNA-hα4β2 cells are grown in Dulbecco's modified Eagle's medium supplemented with 5% fetal bovine serum, 10% horse serum, 100 units/mL penicillin G, 100 μg/mL streptomycin, 320 μg/mL hygromycin B (Calbiochem, La Jolla, Calif.), 400 units/mL Zeocin at 37° C. with 5% CO2 in a humidified incubator.” left out
B. nAChR Binding Affinity and Sub-type Selectivity Assay. The Ki values of compounds for binding to α3β4, α4β2 and other nAChR sub-types will be measured by competition experiments with [3H]epibatidine or other labeled ligands. […]
In brief, cultured cells at above about 80% confluence will be removed from their flasks (80 cm^2) with a disposable cell scraper and will be placed in 10 mL of 50 mM Tris-HCl buffer, pH 7.4, 4° C. […] Nonspecific binding will be assessed in parallel incubations in the presence of 300 μM nicotine. […] The filter-retained radioactivity will be measured by liquid scintillation counting. […] Data from saturation and competition binding assays will be analyzed using Prism 4 (GraphPad Software, San Diego, Calif.).

α4β2 nAChRs [8] = target: T1, α4β2 nAChRs; assay: desensitizer test: 86Rb+ efflux after 10 min preincubation, α4β2 nAChR; type: cell-based
Method: as §1, with “The SH-EP1-pcDNA-hα4β2 cells are grown in Dulbecco's modified Eagle's medium supplemented with 5% fetal bovine serum, 10% horse serum, 100 units/mL penicillin G, 100 μg/mL streptomycin, 320 μg/mL hygromycin B (Calbiochem, La Jolla, Calif.), 400 units/mL Zeocin at 37° C. with 5% CO2 in a humidified incubator.” left out
C. nAChR Functional Assay. The agonist, antagonist and/or desitizer activity of compounds of the invention can be evaluated by measuring its blockade of nicotine-stimulated 86Rb+ efflux. […]
In brief, cells will be plated into 24-well plates coated with poly-D-lysine. […] Radioactivity of assay samples and lysates will be measured by liquid scintillation counting. Total loading (cpm) will be calculated as the sum of the assay sample and the lysate of each well. The amount of 86Rb+ efflux will be expressed as a percentage of 86Rb+ loaded. […] IC50 values will be determined by nonlinear least-squares regression analyses (GraphPad Software).
D. Measurement of Desensitization. Not intending to be bound by any one method, desensitization may be measured, for example, by the method described below. […]

[9] = in vivo; cited from earlier work

Q: What does the source list for OCCCCC#Cc1cncc(OCC2CCN2)c1 (centres unmarked) [sazetidine A]?
A: selectivity, affinity at α4β2 compared to α7 nAChRs (α7 nAChRs): > 3,500 fold; EC50 (α4β2 nAChRs [1]): 26 nM; selectivity, affinity at α4β2 compared to α3β4 nAChRs (α3β4 nAChRs [2]): greater than 10,000 fold; stability on exposure to air [3]: decomposition of the material to a yellow-brown wet solid; agonist activity at α4β2 nAChRs (α4β2 nAChRs [4]; added alone): low agonist activity; antagonist activity at α4β2 receptors (α4β2 nAChRs [4]; added simultaneously with an agonist, such as nicotine): no typical antagonist activity; effect on the function of α3β4 nAChRs (α3β4 nAChRs [5]): no effect; Ki (α4β2 nAChRs [6]): 0.41 nM

Q: What does the source list for OCCCCc1cn(-c2cncc(OCC3CCN3)c2)nn1 (centres unmarked) [triazetidine O]?
A: Ki (α3β4 nAChRs [7]): 62000 nM; IC50 (α4β2 nAChRs [8]): 100 nM; Ki (α4β2 nAChRs [6]): 3.51 nM; decrease in Ki relative to sazetidine A (α4β2 nAChRs [6]; triazole in place of the alkynyl group): approximately 10 fold; selectivity for the α4β2 receptor (α4β2 nAChRs [6]; α4β2 over α3β4, from Ki values): 17,692 fold

Q: With Clc1ccc(C2CC3CCC2N3)cn1 (centres unmarked) [Epibatidine] as the molecule, how does the analgesic potency [9] read?
A: ~200 times that of morphine

Source: patent publication US20110281836A1, “Silent desensitizers of neuronal NACHR and methods of use thereof” (priority 2008, published 2011)
